Assay results as given in patent US4803221A, “Anthracene derivatives” (priority 1987, dated 1989).
Where a name gives a salt, the structure may show the parent alone. Read-outs that look alike come from different tables or passages of the source.

Columns and labels:
LD50 Tests = settings: in vivo; IP single dose, CD-1 male mouse
Source text: |(IP single dose - CD-1 Male Mouse)

[1] = tested on: lymphocytic leukemia P388/0; assay: Lymphocytic Leukemia P388/0 Test; assay type: in vivo, mouse (CD2-F1); set-up: LD20: unit: mg/kg; settings: ip days 1, 5, 9; for LD20: doses on a mg/kg basis; for T/C × 100% (Excluding 30 Day Survivors): median survival time treated/control, at the optimal dose of the compound (Table I), active if ≥120%
Source text: (§1) Methods for evaluating the antitumor activity of these compounds are essentially those used in the Tumor Panel by the Developmental Therapeutics Program, Division of Cancer Treatment, National Cancer Institute, A. Goldin, et al., Methods in Cancer Research, Vol. XVI, p.165, Academic Press (1979). Some modifications, in dose level and schedule have been made to increase the testing efficiency.
(§2) CD2-F1 mice, of the same sex, weighing 20±3 g are used for this test. Control and test animals are injected intraperitoneally with a suspension of ~10^6 viable P388/0 tumor cells on day 0. In each test, several dose levels which bracket the LD20 of the compound are evaluated; each dose level group contains six animals. The test compounds are prepared either in physiologic saline containing 0.05% Tween 80 or distilled water containing 5% dextrose and are administered intraperitoneally on days 1, 5, and 9 relative to tumor implant. Doses are on a mg/kg basis according to individual animals' body weights. The day of death for each animal is recorded, the median identified for each group and the ratios of median survival time for treated (T)/control (C) Groups are calculated. The criterion for activity is T/C×100≥120%.

[2] = Antibacterial screening against Mycoplasma smegmatis; assay type: cell-based
Source text: (§3) Antibacterial test against Mycoplasma smegmatis (S3264) and Streptococcus pyogenes (CN10) was done with slight modifications using standard agar dilution assays as outlined in Manual of Clinical Microbiology Second Ed., E. H. Lennette, E. H. Spaulding and J. P. Truant Eds., American Society for Microbiology, Washington, DC, 1974.

[3] = tested on: Nippostrongylus brasiliensis; assay: Anthelmintic screening against Nippostrongylus brasiliensis; assay type: cell-based
Source text: Anthelmintic testing against Nippostrongylus brasiliensis was done using methods outlined in D. C. Jenkins, R. Armitage, and T. S. Carrington, Zeitschrift for Parasitenkunde 63, 261-269 (1980)

Herpes simplex 1/vero = Herpes simplex 1/vero plaque inhibition screen; assay type: cell-based; settings: for Zone of Inhibition: plaque inhibition screen
Source text: The column headings labeled Score, Toxicity, and Zone of Inhibition refer to the plaque inhibition screen while the IC50 heading to the plaque reduction screen.

Candida albicans = assay: Antifungal testing against Candida albicans (CN 1863); assay type: cell-based, Candida albicans (CN1863); settings: Wellcotest sensitivity test agar plus 7% lysed horse blood
Source text: Antifungal testing against Candida albicans (CN 1863) was done with slight modifications using a combination of broth and agar dilution assays as outlined in Laboratory Handbook of Medical Mycology, Chapter 6, pages 441-446, M. R. McGinnis, Academic Press, New York, NY, 1980
Medium: Wellcotest ® sensitivity test agar plus 7% lysed horse blood.

Streptococcus pyogenes = assay: Antibacterial testing against Streptococcus pyogenes (CN10); assay type: cell-based; settings: agar dilution
Source text: as §3

M5076 sarcoma = assay: M5076 Sarcoma Test; assay type: in vivo, mouse (B6C3-F1); settings: survival; 110 mg/kg; ip days 1, 5, 9; active if ≥125%
Source text: as §1
This sarcoma arose as a solid tumor in the ovary of a C57Bl/6 mouse and was subsequently converted to the ascitic form for intraperitoneal use. The protocol for this test is identical with that for P388/0. The B6C3-F1mouse strain is used and the criterion for activity is T/C×100≥125%.

Lewis lung carcinoma = assay: Lewis Lung Carcinoma Test; assay type: in vivo, mouse (BD-F1); settings: median survival, iv tumor cells; dosing days 1, 5, 9; dose: 3C 130, 4C 200 mg/kg; active if ≥140%
Source text: as §1
This tumor arose spontaneously in the lung of a C57B1/6 mouse and is maintained by subcutaneous passage in that strain. The solid tumor is excised aseptically and placed in sterile saline. Pieces of viable tumor tissue are minced finely with scissors and forced through a 200 mesh stainless steel screen to disaggregate the tumor cells into a suspension. 10^6 Viable cells are injected intravenously into the tail vein of BD-F1, mice of the same sex weighing 20±3 g. In each test, several dose levels which bracket the L20 for the compound are evaluated. Ten animals are included in each dose level grup, and twenty animals in the untreated control group. The test compounds are prepared and administered on days 1, 5, and 9 as in the P388/0 protocol. The day of death for each animal is recorded, the median identified for each group and the ratios of median survival time for treated (T)/control (C) groups are calculated. The criterion for activity is T/C×100≥140%.

[4] = tested on: lymphocytic leukemia L1210; assay: Lymphocytic Leukemia L1210 Test; assay type: in vivo, mouse (CD2-F1); settings: median survival; ip days 1, 5, 9; dose: 3C 110, 4C 150 mg/kg; active if >125%
Source text: as §1
The protocol for this test is identical to that for P388/0, except that the number of L1210 cells implanted on day 0 is […]. The mouse CD2-F1 strain is used, and the criterion for activity is T/C×100 >125%.

Colon 38 carcinoma = assay: Colon 38 Carcinoma Test; assay type: in vivo, mouse (C57Bl/6); settings: tumor weight, day 20; 150 mg/kg ip days 1, 5, 9; active if ≤42%
Source text: as §1
This chemically-induced tumor arose in a C57Bl/6 mouse and is maintained as a solid tumor in that mouse strain. The subcutaneously growing solid tumor is aseptically excised from passage mice and placed in sterile saline. The tumor is trimmed free of visible necrotic and connective tissue, then divided into 2-3 mm cubes. A cube is implanted subcutaneously in the ventral thoracic region with a sterile trochar on day 0. In each test several dose levels which bracket the LD20 for the compound are evaluated. Ten animals are included in each dose level group and thirty animals in the untreated control group. The test compounds are prepared either in physiologic saline containing 0.05% Tween 80 or distilled water containing 5% dextrose and are administered intraperitoneally on days 1, 5 and 9 after tumor implant. […] At day 20, the animals are sacrificed and the longest (L) and shortest (W) dimensions of each tumor measured with vernier calipers. Tumor weight is calculated from the formula [formula] […]

[5] = Lymphocytic Leukemia P388/0 Test; assay type: in vivo, mouse (CD2-F1); set-up: LD20: unit: mg/kg; settings: mouse, in vivo; ip days 1, 5, 9; doses on a mg/kg basis; read-out: highest nontoxic dose where the LD20 was not determined (values in parentheses in LD20 column)
Source text: as §1, §2

[6] = immature - free living stages, read-out: MIC

Compound | LD20 [1] | T/C × 100% (Excluding 30 Day Survivors) [1] | Zone of Inhibition (Herpes simplex 1/vero) | further results
CC(CO)(CO)NCc1c2ccccc2c(Cl)c2ccccc12.Cl [Example 2A, 2-(((10-chloro-9-anthracenyl)methyl)amino)-2-methyl-1,3-propanediol hydrochloride] | 556 | +228% | – | LD50 (LD50 Tests): 250 mg/kg; MIC [2]: 10 µg/mL; MIC [3, 6]: ≥ 50 µg/mL
CC(CO)(CO)NCc1c2ccccc2c(-n2ccnc2)c2ccccc12 [Example 29B, 2-(((10-(1H-Imidazol-1-yl)-9-anthracenyl)methyl)amino)-2-methyl-1,3-propanediol hydrochloride 11/10 H2 O] | 100 | +235% | 32 | –
CC(CO)(CO)NCc1c2ccccc2cc2ccccc12.Cl [Example 1, 2-((9-Anthracenylmethyl)amino)-2-methyl-1,3-propanediol hydrochloride] | 150 | +130% | – | LD50 (LD50 Tests): 160 mg/kg; MIC [2]: < 5 µg/mL; MIC [3, 6]: ≥ 50 µg/mL; MIC (Candida albicans): > 50 µg/mL
2-(((2-Ethyl-9-anthracenyl)methyl)amino)-2-methyl-1,3-propanediol and 2-(((3-ethyl-9-anthracenyl)methyl)amino)-2-methyl-1,3-propanediol hydrochloride.1/4H2 O [Example 31C] | – | – | – | Toxicity (Herpes simplex 1/vero): Y
COCC(C)(CO)NCc1c2ccccc2cc2ccccc12.Cl (stereo not shown) [Example 33D, 2-((9-Anthracenylmethyl)amino)-3-methoxy-2-methyl-1-propanol hydrochloride] | – | – | 35 | –
CCOCC(CO)(CO)NCc1c2ccccc2cc2ccccc12.Cl [Example 32C, 2-((9-Anthracenylmethyl)amino)-2-ethoxymethyl-1,3-propanediol hydrochloride] | 625 | +130% | 23.2 | –
CC(CO)(CO)NCc1c2ccccc2c(OCCO)c2ccccc12 [Example 25B, 2-(((10-(2-hydroxyethoxy)-9-anthracenyl)methyl)amino)-2-methyl-1,3-propanediol hydrochloride 1/2H2 O 1/10EtOH] | 67 | +300% | – | LD50 (LD50 Tests): 110 mg/kg
CC(CO)(CO)NCc1c2ccccc2cc2c(Cl)cccc12.Cl [Example 11B, 2-(((4-Chloro-9-anthracenyl)methyl)amino)-2-methyl-1,3-propanediol hydrochloride] | 200 | +215% | – | MIC (Streptococcus pyogenes): ≤ 10 µg/mL; MIC [2]: ≤ 10 µg/mL
COc1c2ccccc2c(CNC(C)(CO)CO)c2ccccc12.Cl [Example 13B, 2-(((10-Methoxy-9-anthracenyl)methyl)amino)-2-methyl-1,3-propanediol hydrochloride] | 120 | +220% | 40 | MIC (Streptococcus pyogenes): 100 µg/mL; MIC [2]: ≤ 10 µg/mL
CSc1c2ccccc2c(CNC(C)(CO)CO)c2ccccc12 [Example 3C, 2-Methyl-2-(((10-methylthio-9-anthracenyl)methyl)amino)-1,3-propanediolmethanesulfonate] | 70 | +227% | – | T/C × 100% (M5076 sarcoma): +132%; T/C × 100% Excluding 60 day Survivors (Lewis lung carcinoma): +145%; T/C × 100% Excluding 30 day Survivors [4]: +194%
Cc1c2ccccc2c(CNC(C)(CO)CO)c2ccccc12 [Example 7, 2-methyl-2-(((10-methyl-9-anthracenyl)methyl)amino)-1,3-propanediol hydrochloride.1/2H2 O] | 140 | +160% | – | MIC [3]: 50 µg/mL
CC(CO)(CO)NCc1c2ccccc2c(CCCl)c2ccccc12 [Example 4C, 2-(((10-(2-Chloroethyl)-9-anthracenyl)methyl)amino)-2-methyl-1,3-propanediol methanesulfonate] | 130 | +218% | – | T/C × 100% (Colon 38 carcinoma): 38%; T/C × 100% Excluding 60 day Survivors (Lewis lung carcinoma): +154%; T/C × 100% Excluding 30 day Survivors [4]: +217%
CC(CO)(CO)NCc1c2ccccc2cc2cc(Cl)ccc12 [Example 18, 2-(((3-Chloro-9-anthracenyl)methyl)amino-2-methyl-1,3-propanediol hydrochloride] | – | +181% | – | MTD [5]: 675 mg/kg
CSc1c2ccccc2c(CNC(C)(CO)CO)c2ccccc12.Cl [Example 3B, 2-methyl-2-(((10-methylthio-9-anthracenyl)methyl)amino)-1,3-propanediol hydrochloride] | 120 | +262% | – | LD50 (LD50 Tests): 100 mg/kg
CC(CO)(CO)NCc1c2cccc(Cl)c2cc2c(Cl)cccc12.Cl [Example 10B, 2-(((4,5-dichloro-9-anthracenyl)methyl)amino)-2-methyl-1,3-propanediol hydrochloride] | – | +204% | 32 | MTD [5]: 450 mg/kg
